Results taken from patent US4416899A, “Antibiotic BMG162-aF2, a process for production thereof, and antitumor drug containing said new antibiotic as active ingredient” (priority 1980, dated 1983).
≈ marks a conversion by molar mass, not a printed value. Entries after “also recorded” stand apart in the source; their conditions may differ. Counter-ions that a name gives are not always drawn.

Columns and labels:
Sarcina lutea PCI1001 = experiment: Antibacterial activity, agar dilution method (Table 2-1); type: cell-based; conditions: Micrococcus luteus, nutrient agar, 37° C., hydrochloride, read-out: Minimum inhibitory concentration
[1] = test system: Bacillus subtilis NRRL B-558; experiment: as above; type: cell-based; conditions: NRRLB558, nutrient agar, 37° C., hydrochloride, read-out: Minimum inhibitory concentration
[2] = test system: Shigella flexneri 4bJS11811; experiment: as above; type: cell-based; conditions: nutrient agar, 37° C., hydrochloride, read-out: Minimum inhibitory concentration
Excerpt: (§1) | Medium used: nutrient agar

Shigella sonnei JS11746 = experiment: as above; type: cell-based; conditions: nutrient agar, 37° C., hydrochloride, read-out: Minimum inhibitory concentration
Excerpt: as §1

Salmonella typhi T-63 = experiment: as above; type: cell-based; conditions: Salmonella enterica, read-out: Minimum inhibitory concentration
Candida Yu-1200 = experiment: Antibacterial activity, agar dilution method (Table 2-3); type: cell-based; conditions: YU1200, nutrient agar + 1% glucose, 27° C., hydrochloride, read-out: Minimum inhibitory concentration
Candida krusei NI7492 = experiment: as above; type: cell-based; conditions: Pichia kudriavzevii, nutrient agar + 1% glucose, 27° C., hydrochloride, read-out: Minimum inhibitory concentration
[3] = test system: Saccharomyces cerrevisiae; experiment: as above; type: cell-based; conditions: nutrient agar + 1% glucose, 27° C., hydrochloride, read-out: Minimum inhibitory concentration
[4] = test system: Trichophyton mentagrophytes; experiment: as above; type: cell-based; conditions: nutrient agar + 1% glucose, 27° C., hydrochloride, read-out: Minimum inhibitory concentration
[5] = test system: Gram-positive and Gram-negative bacteria; experiment: Antibacterial activity, agar dilution method (summary in words); type: cell-based; conditions: as the hydrochloride salt
mouse leukemia EL-4 = experiment: Effect on mouse leukemia EL-4; type: in vivo; conditions: for rate of elongation of survival period: once a day for 9 days, C57 BL/6 mice, control 11.0 days
mouse Sarcoma 180 = experiment: Effect on Sarcoma 180; conditions: for rate of elongation of survival period: once a day for 9 days, ICR mice, control 13.8 days
[6] = test system: mouse Ehrlich ascites tumor; experiment: Effect on mouse Ehrlich ascites tumor; conditions: for rate of elongation of survival period: once a day for 9 days, ICR mice, control 13.8 days
[7] = test system: Aeromonas punctata IAM1646; experiment: Antibacterial activity, agar dilution method (Table 2-2); conditions: Aeromonas caviae, IAM1646, read-out: Minimum inhibitory concentration
[8] = test system: Aeromonas salmonecida ATCC 14174; experiment: as above; conditions: ATCC14174, read-out: Minimum inhibitory concentration
Aeromonas sp. (KT-444) = experiment: as above; conditions: read-out: Minimum inhibitory concentration
Pseudomonas lachrymans = experiment: as above; conditions: read-out: Minimum inhibitory concentration
Solubility = type: physicochemical
[9] = Stability / hydroscopicity; type: physicochemical; conditions: hydrochloride salt
[10] = Acute toxicity, intravenous; conditions: mouse, in vivo

## N=C(N)NCCCCC(O)CC(=O)NC(O)C(=O)NCCCCNCCCN (stereo not shown) [BMG162-aF2]
Sarcina lutea PCI1001
  MIC: 100 µg/mL (≈ 248 µM)
[1]
  MIC: 100 µg/mL (≈ 248 µM)
[2]
  MIC: > 100 µg/mL
Shigella sonnei JS11746
  MIC: > 100 µg/mL
Salmonella typhi T-63
  MIC: > 100 µg/mL
Candida Yu-1200
  MIC: > 100 µg/mL
Candida krusei NI7492
  MIC: > 100 µg/mL
[3]
  MIC: > 100 µg/mL
[4]
  MIC: > 100 µg/mL
[5]
  inhibitory activity against Gram-positive and Gram-negative bacteria: only weak inhibitory activity; also recorded: weakly inhibits Gram positive and negative bacteria
Mouse leukemia EL-4; 0.313 mg/kg/day ip
  rate of elongation of survival period: 131
Mouse leukemia EL-4; 0.625 mg/kg/day ip
  rate of elongation of survival period: 130
Mouse leukemia EL-4; 1.25 mg/kg/day ip
  rate of elongation of survival period: 159
Mouse leukemia EL-4; 2.5 mg/kg/day ip
  rate of elongation of survival period: 164
Mouse leukemia EL-4; 5 mg/kg/day ip
  rate of elongation of survival period: 193
Mouse leukemia EL-4; hydrochloride, ip
  effect on mouse leukemia EL-4: remarkable effects of cure and elongation of survival period
Mouse Sarcoma 180; 1.56 mg/kg/day ip
  rate of elongation of survival period: 220
Mouse Sarcoma 180; 3.13 mg/kg/day ip
  rate of elongation of survival period: 243
Mouse Sarcoma 180; 6.25 mg/kg/day ip
  rate of elongation of survival period: 181
Mouse Sarcoma 180; 12.5 mg/kg/day ip
  rate of elongation of survival period: > 279
Mouse Sarcoma 180; 50 mg/kg/day ip
  rate of elongation of survival period: 53
Mouse Sarcoma 180; 50, 12.5 and 6.25 mg/kg/day ip (footnote *)
  Toxic sign: Toxic sign appeared
Mouse Sarcoma 180; hydrochloride, ip
  effect on Sarcoma 180: remarkable effects of cure and elongation of survival period; also recorded: showed an effect against a transplanted tumor
[6]; 1.56 mg/kg/day ip
  rate of elongation of survival period: 133
[6]; 3.13 mg/kg/day ip
  rate of elongation of survival period: 188
[6]; 6.25 mg/kg/day ip
  rate of elongation of survival period: 236
[6]; 12.5 mg/kg/day ip
  rate of elongation of survival period: 170
[6]; 25 mg/kg/day ip
  rate of elongation of survival period: 72
[6]; 50 mg/kg/day ip
  rate of elongation of survival period: 54
[6]; 50, 25 and 12.5 mg/kg/day ip (footnote *)
  Toxic sign: Toxic sign appeared
[6]; hydrochloride, ip
  effect on Ehrlich ascites tumor: remarkable effects of cure and elongation of survival period; also recorded: showed an effect against a transplanted tumor
[7]
  MIC: > 100 µg/mL
[8]
  MIC: > 100 µg/mL
Aeromonas sp. (KT-444)
  MIC: > 100 µg/mL
Pseudomonas lachrymans
  MIC: 50 µg/mL (≈ 124 µM)

## N=C(N)NCCCCC(O)CC(=O)NC(O)C(=O)NCCCCNCCCN (stereo not shown) [BMG162-aF2 hydrochloride]
Solubility; benzene
  solubility: only slightly soluble or insoluble
Solubility; chloroform
  solubility: only slightly soluble or insoluble
Solubility; ethanol
  solubility: only slightly soluble or insoluble
Solubility; ethyl acetate
  solubility: only slightly soluble or insoluble
Solubility; methanol
  solubility: easily soluble
Solubility; water
  solubility: easily soluble
[9]
  hydroscopicity: so hydroscopic that it forms a hydrate
[10]
  LD50: > 80 mg/kg
